Test results from US20240201191A1, “CITRULLINATED PROTEINS AS BIOMARKERS AND THERAPY TARGETS FOR CANCER” (BOARD OF REGENTS, THE UNIVERSITY OF TEXAS SYSTEM, priority 2022, published 2024).
Square brackets hold non-standard residues; d marks the D form. Ends that are not written are not given here. Cit = NC(=O)NCCC[C@H](N)C(=O)O

How the values were obtained:
[1] = tested on: B cell-mediated IgG secretion; assay: ELISpot IgG assay; assay type: cell-based; details: compared to media
Source text: (§1) Using ELISpot assays, we tested the unmodified and citrullinated forms of three pairs of synthesized ENO1 peptides predicted as having high MHC-II binding affinity and assessed B cell-mediated IgG and T cell-mediated IFNγ secretion (Table 9).

[2] = tested on: T cell-mediated IFNγ secretion; assay: ELISpot IFNγ assay; assay type: cell-based; details: compared to media
Source text: as §1

Row | Substance | B cell-mediated IgG response (ELISpot) [1] | T cell-mediated IFNγ secretion (ELISpot) [2] | T cell-mediated IFNγ secretion (ELISpot) ([2]; listed as citrullinated peptide 1)
1 | AMQEFMILPVGASSFR*EAMR*GA (AMQEFMILPVGASSF[Cit]EAM[Cit]GA) [citrullinated peptide-2, citrullinated synthesized ENO1 peptide, R16(Cit.), R20(Cit.)] | elicited a potent IgG response |  | 
2 | R*AAVPSGASTGIYEALELR*DNDKTR* (RAAVPSGASTGIYEALELRDNDKTR; citrullinated arginines; MOD_RES (1)..(1) Citrullinated Arginine; MOD_RES (19)..(19) Citrullinated Arginine; MOD_RES (25)..(25) Citrullinated Arginine) [citrullinated peptide-1, citrullinated synthesized ENO1 peptide, position 32-56] | elicited a potent IgG response | modest increase in IFNg secretion | higher amount of INFγ response
